According to US20060172423A1, “New expression system from rhodococcus” (priority 2002, published 2006):
Like-named read-outs stand apart in the source and are kept apart here.

Tests used:
[1] = test system: repressor-promoter system of the KstD gene; assay: steroid induction of KSTD activity in cell free extracts (DCPIP as electron acceptor, AD as substrate), SQ1; format: cell-based, Rhodococcus erythropolis SQ1
Protocol: 4-androstene-3,17-dione (AD) induction served as a positive control.
From induced cultures, cell free extracts were prepared as indicated above and tested for KSTD activity using DCPIP as an electron acceptor and AD as a substrate.
(§1) Further, it was investigated whether KSTD1 was constitutively expressed in R. erythropolis RG10. Cell free extracts were prepared from an AD-induced cell culture and from a non-induced cell culture. These extracts were tested for KSTD activity using DCPIP as an electron acceptor and AD as a substrate. For reasons of comparison, the same procedure was performed with R. erythropolis SQ1.

KSTD activity [2] = conditions: gene disruption mutant SDH420; cited from earlier work
KSTD activity [3] = assay: KSTD activity in cell free extracts (DCPIP as electron acceptor, AD as substrate), RG10; format: cell-based, Rhodococcus erythropolis RG10; conditions: cell free extract of AD-induced culture
Protocol: as §1

Row | Structure (SMILES) | lifting of kstD promoter repression exerted by the kstR gene product ([1]; addition of steroid compound) | also measured
1 | C[C@@H]1CC2=CC(=O)CC[C@@H]2[C@H]2CC[C@]3(C)C(=O)CC[C@H]3[C@@H]21 [7α-methyl-nordione] | able to lift kstD promotor repression | –
2 | C[C@]12CCC(=O)C=C1CC[C@H]1[C@@H]3CCC(=O)[C@@]3(C)CC[C@@]12O [9OHAD, 9α-hydroxy-4-androstene-3,17-dione] | – | lifting of kstD promoter repression exerted by the kstR gene product [1]: able to lift kstD promotor repression
3 | C=C1C[C@]2(C)C(=O)CC[C@H]2[C@@H]2CCC3=CC(=O)CC[C@@H]3[C@@H]12 [11-methylene-nordione] | able to lift kstD promotor repression | –
4 | C[C@]12CC[C@H]3C(=CCC4=CC(=O)CC[C@@]43CO)[C@@H]1CCC2=O [19-OH-7-dehydro-androstene-3,17-dione] | able to lift kstD promotor repression | –
5 | C[C@]12CCC(=O)C=C1CC[C@@H]1[C@@H]2CC[C@]2(C)C(=O)CC[C@@H]12 [AD, 4-androstene-3,17-dione] | able to lift kstD promotor repression | induction of wild-type KSTD activity in R. erythropolis SDH420 (KSTD activity [2]): can be induced; KSTD activity in R. erythropolis RG10 (KSTD activity [3]): present; induction of KSTD activity in R. erythropolis SQ1 ([1]; cell free extracts of induced cultures, DCPIP electron acceptor, AD substrate): detected
6 | C[C@]12C=CC(=O)C=C1CC[C@@H]1[C@@H]2CC[C@]2(C)C(=O)CC[C@@H]12 [ADD, 1,4-androstadiene-3,17-dione] | able to lift kstD promotor repression | –
7 | C[C@]12CC[C@H]3[C@@H](CCC4=CC(=O)CC[C@@H]43)[C@@H]1CCC2=O [estr-4-ene-3,17-dione] | able to lift kstD promotor repression | –
8 | CC(=O)[C@H]1CC[C@H]2[C@@H]3CC=C4C[C@@H](O)CC[C@]4(C)[C@H]3CC[C@]12C [pregnenolone] | able to lift kstD promotor repression | –
9 | CC(=O)[C@H]1CC[C@H]2[C@@H]3CCC4=CC(=O)CC[C@]4(C)[C@H]3CC[C@]12C [progesterone] | able to lift kstD promotor repression | –
10 | C[C@]12CCC(=O)C[C@@H]1CC[C@@H]1[C@@H]2CC[C@]2(C)[C@@H](O)CC[C@@H]12 [stanolone, 17β-OH-5α-androstane-3-on] | – | lifting of kstD promoter repression exerted by the kstR gene product [1]: able to lift kstD promotor repression
11 | C[C@]12CC[C@H]3[C@@H](CCC4=CC(=O)CC[C@@]43C)[C@@H]1CC[C@@H]2O [testosterone] | – | lifting of kstD promoter repression exerted by the kstR gene product [1]: able to lift kstD promotor repression
